Experimental data as given in ChEMBL document CHEMBL3885861, “Open TG-GATES”.

Organism: Rattus norvegicus
Experiment: Open TG-GATES - Regimen: Daily Repeat
Type: toxicity, organism-based, Sprague-Dawley
Set-up: regimen Daily Repeat, gender Male, age 6 weeks
Conditions: in vivo, po, 60 mg/kg, route gavage, dose level High; for APTT / Bas / Eos / Fbg / Hb / Ht / Lym / MCH / MCHC / MCV / Mono / Neu / PT / Plat / RBC / Ret / WBC: tissue Blood; for KIDNEY_L / KIDNEY_R / KIDNEY_TOTAL: tissue Kidney; for LIVER: tissue Liver; for A/G / ALP / ALT / AST / BUN / CRE / Ca / Cl / DBIL / GLC / IP / K / LDH / Na / PL / RALB / TBIL / TC / TG / TP / gamma-GTP: tissue Plasma

## CC(C)NNC(=O)c1ccncc1 [IPRONIAZID]
72 h, time 3 day
  TERMINAL_BW: 184.6 g
  APTT: 22.8 s
  Bas: 0%
  Eos: 0.8%
  Fbg: 317.4 mg/dL
  Hb: 13.1 g/dL
  Ht: 38.2%
  Lym: 86.2%
  MCH: 20.5 pg
  MCHC: 34.4%
  MCV: 59.6 fL
  Mono: 1.6%
  Neu: 10.8%
  PT: 16.9 s
  Plat: 145 x10_4/uL
  RBC: 640.8 x10_4/ul
  Ret: 5.5%
  WBC: 90.9 x10_2/uL
  KIDNEY_L: 0.9 g
  KIDNEY_R: 0.9 g
  KIDNEY_TOTAL: 1.7 g
  LIVER: 8.1 g
  A/G: 1.2
  ALP: 1455.4 IU/L
  ALT: 34 IU/L
  AST: 78.2 IU/L
  BUN: 20.4 mg/dL
  CRE: 0.2 mg/dL
  Ca: 10.2 mg/dL
  Cl: 108.2 meq/L
  DBIL: 0.002 mg/dL
  GLC: 175.4 mg/dL
  IP: 7.2 mg/dL
  K: 4.2 meq/L
  LDH: 305.2 IU/L
  Na: 143.4 meq/L
  PL: 149.6 mg/dL
  RALB: 3.2 g/dL
  TBIL: 0.04 mg/dL
  TC: 89.6 mg/dL
  TG: 61.2 mg/dL
  TP: 5.8 g/dL
  gamma-GTP: 1.2 IU/L
[…], time 7 day
  TERMINAL_BW: 201.3 g
  APTT: 21.6 s
  Bas: 0%
  Eos: 1%
  Fbg: 275.8 mg/dL
  Hb: 11.7 g/dL
  Ht: 33.9%
  Lym: 77.2%
  MCH: 20.4 pg
  MCHC: 34.4%
  MCV: 59.3 fL
  Mono: 2.2%
  Neu: 19%
  PT: 16.3 s
  Plat: 121.7 x10_4/uL
  RBC: 571.6 x10_4/ul
  Ret: 7.4%
  WBC: 126.5 x10_2/uL
  KIDNEY_L: 1 g
  KIDNEY_R: 0.9 g
  KIDNEY_TOTAL: 1.9 g
  LIVER: 8.5 g
  A/G: 1.2
  ALP: 1212.6 IU/L
  ALT: 34.4 IU/L
  AST: 82 IU/L
  BUN: 22.2 mg/dL
  CRE: 0.2 mg/dL
  Ca: 10.1 mg/dL
  Cl: 108 meq/L
  DBIL: 0.024 mg/dL
  GLC: 180.6 mg/dL
  IP: 7 mg/dL
  K: 4 meq/L
  LDH: 241.4 IU/L
  Na: 142.8 meq/L
  PL: 151.6 mg/dL
  RALB: 3.1 g/dL
  TBIL: 0.086 mg/dL
  TC: 85.8 mg/dL
  TG: 55.2 mg/dL
  TP: 5.6 g/dL
  gamma-GTP: 1.6 IU/L
[…], time 14 day
  TERMINAL_BW: 239 g
  APTT: 21.3 s
  Bas: 0%
  Eos: 1%
  Fbg: 302.2 mg/dL
  Hb: 11.4 g/dL
  Ht: 35.7%
  Lym: 78%
  MCH: 22.2 pg
  MCHC: 31.8%
  MCV: 69.8 fL
  Mono: 2%
  Neu: 18.4%
  PT: 16.5 s
  Plat: 115.4 x10_4/uL
  RBC: 511.4 x10_4/ul
  Ret: 19.5%
  WBC: 131.9 x10_2/uL
  KIDNEY_L: 1 g
  KIDNEY_R: 1 g
  KIDNEY_TOTAL: 2.1 g
  LIVER: 10.1 g
  A/G: 1.2
  ALP: 1104 IU/L
  ALT: 41 IU/L
  AST: 79 IU/L
  BUN: 19.6 mg/dL
  CRE: 0.2 mg/dL
  Ca: 10 mg/dL
  Cl: 106.8 meq/L
  DBIL: 0.01 mg/dL
  GLC: 174 mg/dL
  IP: 7 mg/dL
  K: 4.1 meq/L
  LDH: 201.2 IU/L
  Na: 141.4 meq/L
  PL: 165.8 mg/dL
  RALB: 3 g/dL
  TBIL: 0.058 mg/dL
  TC: 92.4 mg/dL
  TG: 82.8 mg/dL
  TP: 5.6 g/dL
  gamma-GTP: 1.8 IU/L
[…], time 28 day
  TERMINAL_BW: 299.7 g
  APTT: 21.5 s
  Bas: 0%
  Eos: 0.8%
  Fbg: 352.8 mg/dL
  Hb: 11.9 g/dL
  Ht: 35%
  Lym: 77%
  MCH: 21.6 pg
  MCHC: 33.9%
  MCV: 63.7 fL
  Mono: 2.2%
  Neu: 18.8%
  PT: 16.9 s
  Plat: 108.7 x10_4/uL
  RBC: 550.2 x10_4/ul
  Ret: 12.4%
  WBC: 121.5 x10_2/uL
  KIDNEY_L: 1.2 g
  KIDNEY_R: 1.2 g
  KIDNEY_TOTAL: 2.4 g
  LIVER: 11.8 g
  A/G: 1.1
  ALP: 1056.8 IU/L
  ALT: 25 IU/L
  AST: 66.8 IU/L
  BUN: 18.6 mg/dL
  CRE: 0.2 mg/dL
  Ca: 10.2 mg/dL
  Cl: 105.8 meq/L
  DBIL: 0.004 mg/dL
  GLC: 182 mg/dL
  IP: 6.6 mg/dL
  K: 4.1 meq/L
  LDH: 156.6 IU/L
  Na: 141.8 meq/L
  PL: 149.6 mg/dL
  RALB: 3.1 g/dL
  TBIL: 0.09 mg/dL
  TC: 87 mg/dL
  TG: 76.6 mg/dL
  TP: 6 g/dL
  gamma-GTP: 2.4 IU/L
